What was measured:
[1] = biological target: T1, protein farnesyl transferase (Bos taurus, UniProt P29702+P49355); test: Inhibition of protein farnesyl transferase (dansyl-GCVLS fluorescence); type: biochemical; conditions: enzyme partially purified from bovine brain; 2 μM FPP, 2 μM dansyl GCVLS, 10 minutes at 37° C.; read-out: IC50 (PFTase)
T1 construct: partially purified from bovine brain by ion-exchange chromatography; from tissue; host or cells: bovine brain
Procedure: A) Evaluation of the Inhibition of Protein Famesyl Transferase:
The famesylation of the dansylated peptide GCVLS, catalyzed with the enzyme protein famesyl transferase results in a change in the emission spectrum of the dansyl group, and especially an increase in the emission at 505 nm when the molecule is excited at 340 nm. When measured using the spectrofluorimeter, this emission is proportional to the activity of the enzyme (Pompliano et al., J. Am. Chem. Soc. 1992; 114: 7945-7946).
55 mM TRIS/HCl pH 7.5; 5.5 mM DTT; 5.5 mM MgCl2; 110 μM ZnCl2, 0.22% B-octyl-B D-glucopyrannoside.
Farnesyl pyrophosphate (FPP), (Sigma)
Dansylated peptide dansyl-GCVLS (Neosystem/Strasbourg, France)
The protein farnesyl transferase is partially purified from bovine brain by ion-exchange chromatography on Q-sepharose (Pharmacia) (Moores et al., J. Biol. Chem. 1991, 266: 14603-14610, Reiss et al., Cell 1990, 62: 81-88).
The reaction mixture containing 2 μM of FPP, 2 μM of dansyl GCVLS with or without (zero) the amount of enzyme giving an intensity of 100 on the spectrofluorimeter after incubation for 10 minutes at 37° C., is prepared on ice.
In an Eppendorf tube, 360 μL of reaction mixture are mixed with 40 μl of 10× concentrated test product or of solvent, and incubated for 10 minutes at 37° C. The reaction is quenched on ice and the fluorescence intensity is measured (excitation at 340 nm, 4 nm slit, emission at 505 nm, 10 nm slit). The tests are performed in duplicate. The results are expressed as a percentage of inhibition. Under these conditions, the derivatives of the present invention were identified as powerful inhibitors of protein farnesyl transferase (IC50<10 μM).
Adaptation of the method to a 96-well format:
The procedure is similar to that above, except that the measurements are performed in a “Black Fluorotrack 200” 96-well device (Greiner, Poitiers, France) and the readings are performed using a “Spectrametrix Gemini” 96-well fluorimeter (Molecular Devices, Sunnyvale, Calif., USA)

[2] = biological target: T2, GGPT I (Bos taurus, UniProt P29702+Q5EAD5); test: Inhibition of geranylgeranyl transferase protein I (3H-GGPP, RhoA-GST filter assay); type: biochemical; conditions: enzyme partially purified from bovine brain; 0.2 μM 3H-GGPP, 1 μM RhoA-GST, 45 minutes at 37° C.; read-out: IC50 (PGGTase)
T2 construct: GGPT I is partially purified from bovine brain by ion-exchange chromatography; from tissue; host or cells: bovine brain
Procedure: B) Evaluation of the Inhibition of Geranyl Geraryl Transferase Protein I:
55 mM TRIS/HCl pH 7.5; 5.5 mM DTT; 5.5 mM MgCl2; 110 μM ZnCl2, 0.22% N-octyl-B D-glucopyrannoside.
^3H-geranylgeranyl pyrophosphate (GGPP), 66 μM, 15 CI/mmol, (Isotopchim) Rho-GST recombinant protein
GGPT I is partially purified from bovine brain by ion-exchange chromatography on Q-sepharose (Pharmacia); elution at 0.23 and 0.4 M NaCl, respectively.
The reaction mixture containing 0.2 μM of ^3H-GGPP, 1 μM of RhoA-GST with or without (zero) 5 μl of GGPT/test, is prepared on ice.
In an Eppendorf tube, 45 μl of reaction mixture are mixed with 5 μl of 10× concentrated test product or of solvent, and incubated for 45 minutes at 37° C. A 45 μl aliquot is placed on a phosphocellulose P81 filter (Whatman, Maidstone, UK) numbered, washed with 50% ethanol, phosphoric acid (0.5%) and counted by scintillation.
The tests are performed in duplicate. The results are expressed as a percentage of inhibition.
Adaptation of the Method to a 96-well Format: […]
The tests are performed in triplicate. The results are expressed as a percentage of inhibition.

Compound | IC50 [1] | IC50 [2]
CC(C)CNC(=S)N1CCC(c2ccc(N(Cc3cnc[nH]3)S(=O)(=O)c3ccccc3)cc2)CC1 [Example 141, 4-{4-[Benzenesulfonyl-(3H-imidazol-4-ylmethyl)amino]phenyl}piperidine-1-carbothioic acid isobutylamide] | 9 nM | 
N#Cc1ccc(Cn2cncc2CN(C(=O)c2cccc(F)c2)c2ccc(N3CCN(C(=O)c4ccc(Cl)s4)CC3)cc2)cc1 [Example 114, N-{4-[4-(5-Chloro-2-thiophenecarbonyl)-1-piperazinyl]phenyl}-N-[3-(4-cyanobenzyl)-3H-imidazol-4-ylmethyl]-3-fluorobenzamide] | 2 nM | 
N#Cc1ccc(Cn2cncc2CN(C(=O)C2CCCCC2)c2ccc(N3CCN(C(=O)c4ccc(Cl)s4)CC3)cc2)cc1 [Example 124, Cyclohexanecarboxylic acid {4-[4-(5-chloro-2-thiophenecarbonyl)-1-piperazinyl]phenyl}-[3-(4-cyanobenzyl)-3H-imidazol-4-ylmethyl]amide] | 2 nM | 
N#Cc1ccc(Cn2cncc2CN(C(=O)c2cccs2)c2ccc(N3CCN(C(=O)c4ccc(Cl)s4)CC3)cc2)cc1 [Example 109, Thiophene-2-carboxylic acid {4-[4-(5-chloro-2-thiophenecarbonyl)-1-piperazinyl]phenyl}[3-(4-cyanobenzyl)-3H-imidazol-4-ylmethyl]amide] | 1 nM | 700 nM
CC(C)CNC(=S)N1CCN(c2ccc(N(Cc3cnc[nH]3)S(=O)(=O)c3ccccc3)cc2)CC1 [Example 45, 4-{4-[Benzenesulfonyl-(3H-imidazol-4-ylmethyl)amino]phenyl}-1-piperazinecarbothioic acid isobutylamide] | 6 nM | 

The remaining compounds from weak to strong by IC50 [1], led by results:

IC50 [1] | IC50 [2] | Compound
7 nM |  | CCCNC(=O)N(Cc1cnc[nH]1)c1ccc(N2CCN(C(=O)c3ccc(Cl)s3)CC2)cc1 [Example 82, 1-{4-[4-(5-Chloro-2-thiophenecarbonyl)-1-piperazinyl]phenyl}-1-(3H-imidazol-4-ylmethyl)-3-propyl-urea]
2 nM |  | N#Cc1ccc(Cn2cncc2CN(C(=O)c2ccccc2)c2ccc(N3CCN(C(=O)c4ccc(Cl)s4)CC3)cc2)cc1 [Example 108, N-{4-[4-(5-Chloro-2-thiophenecarbonyl)-1-piperazinyl]phenyl}N-[3-(4-cyanobenzyl)-3H-imidazol-4-ylmethyl]benzamide]
2 nM |  | N#Cc1ccc(Cn2cncc2CN(C(=O)c2ccccc2Cl)c2ccc(N3CCN(C(=O)c4ccc(Cl)s4)CC3)cc2)cc1 [Example 110, 2-Chloro-N-{4-[4-(5-chloro-2-thiophenecarbonyl)-1-piperazinyl]phenylk}-N-[3-(4-cyanobenzyl)-3H-imidazol-4-ylmethyl]benzamide]
2 nM |  | N#Cc1ccc(Cn2cncc2CN(C(=O)c2ccccc2F)c2ccc(N3CCN(C(=O)c4ccc(Cl)s4)CC3)cc2)cc1 [Example 113, N-{4-[4-(5-Chloro-2-thiophenecarbonyl)-1-piperazinyl]phenyl}-N-[3-(4-cyanobenzyl)-3H-imidazol-4-ylmethyl]-2-fluorobenzamide]
2 nM |  | N#Cc1ccc(Cn2cncc2CN(C(=O)c2ccc(C#N)cc2)c2ccc(N3CCN(C(=O)c4ccc(Cl)s4)CC3)cc2)cc1 [Example 123, N-{4-[4-(5-Chloro-2-thiophenecarbonyl)-1-piperazinyl]phenyl}-4-cyano-N-[3-(4-cyanobenzyl)-3H-imidazol-4-ylmethyl]-benzamide]
0.9 nM |  | N#Cc1ccc(Cn2cncc2CN(c2ccc(N3CCN(C(=O)c4ccc(Cl)s4)CC3)cc2)S(=O)(=O)c2ccccc2C#N)cc1 [Example 126, N-{4-[4-(5-Chloro-2-thiophenecarbonyl)-1-piperazinyl]phenyl}-2-cyano-N-[3-(4-cyanobenzyl)-3H-imidazol-4-ylmethyl]benzenesulfonamide]

From patent US20040092524A1, “Novel aminophenyl piperazine or aminophenyl piperidine derivatives inhibiting prenyl transferase proteins and method for preparing same” (priority 2000, published 2004)
